This note sets out measurements from US4185015A, “Methoxymethyl 6-[D-2,2-dimethyl-4-(4-hydroxyphenyl)-5-oxo-1-imidazolyl]penicillanate” (priority 1977, dated 1980).

Where two headings read alike, the source gives them in different places.

For series [1] the following is noted: in vivo, po. How it is done: Only the latter are biologically active per se. Also, both original ester and parent penicillin were measured.
Series [2] deals with Str. pneumoniae. The series is described as follows: MIC in Nutrient Broth (Table III). The format is cell-based. To be noted: Streptococcus pneumoniae, 10^-3 dilution of overnight broth culture, 45% AAB, 5% serum, 50% broth. An excerpt:
(§1) Organism in Nutrient Broth
(§2) *45% AAB 5% serum 50% broth listed above,
(§3) **Dilution of overnight broth culture

The subject of series [3] is Str. pyogenes. The series is described as follows: MIC in Nutrient Broth (Table III). The format is cell-based. The following applies: Streptococcus pyogenes, 10^-3 dilution of overnight broth culture, 45% AAB, 5% serum, 50% broth.
Excerpt: as §1, §2, §3

For series [4], the system named is Pr. mirabilis. Kind of series: MIC in Nutrient Broth (Table III). The format is cell-based. To be noted: Proteus mirabilis; Pr. mirabilis (10^-4).
Excerpt: as §1, §3

The test system of series [5] is S. aureus Meth.-Res. Kind of series: MIC in Nutrient Broth (Table III). The format is cell-based. To be noted: Staphylococcus aureus, S. aureus Meth.-Res. (10^-3), read-out: MIC.
Excerpt: as §1, §3

In series [6] the test system is Ent. cloacae. The series is described as follows: MIC in Nutrient Broth (Table III). The format is cell-based. The following applies: Enterobacter cloacae, Ent. cloacae (10^-4).
Excerpt: as §1, §3

The test system of series [7] is Pr. morganii. The series is described as follows: MIC in Nutrient Broth (Table III). It counts as cell-based. To be noted: Morganella morganii.
Excerpt: as §1, §3

The test system of series [8] is E. coli. The series is described as follows: MIC in Nutrient Broth (Table III). The format is cell-based. The following applies: Escherichia coli; E. coli (10^-4).
Excerpt: as §1, §3

Series [9] deals with Sal. enteritidis. The series is described as follows: MIC in Nutrient Broth (Table III). It counts as cell-based. To be noted: Salmonella enterica; Sal. enteritidis (10^-4).
Excerpt: as §1, §3

For series [10], the system named is S. aureus Smith. The series is described as follows: MIC in Nutrient Broth (Table III). The format is cell-based. To be noted: Staphylococcus aureus, S. aureus Smith (10^-4).
Excerpt: as §1, §3

In series [11] the test system is Ser. marcescens. Kind of series: MIC in Nutrient Broth (Table III). It counts as cell-based. The following applies: Serratia marcescens; Ser. marcescens (10^-4).
Excerpt: as §1, §3

For series [12], the system named is Ps. aeruginosa. The series is described as follows: MIC in Nutrient Broth (Table III). The format is cell-based. The following applies: Pseudomonas aeruginosa.
Excerpt: as §1, §3

The test system of series [13] is K. pneumoniae. Kind of series: MIC in Nutrient Broth (Table III). The format is cell-based. The following applies: Klebsiella pneumoniae.
Excerpt: as §1, §3

Series [14] relates to S. aureus BX1633. The series is described as follows: MIC in Nutrient Broth (Table III). The format is cell-based. To be noted: Staphylococcus aureus.
Excerpt: as §1, §3

In series [15] the test system is E. coli Juhl. The series is described as follows: MIC in Nutrient Broth (Table III). The format is cell-based. The following applies: Escherichia coli; E. coli Juhl (10^-4).
Excerpt: as §1, §3

Series [16] in a line: in vivo. Further details: species or system mice. The following applies: mouse, po, 50 mg/kg.

Usually MIC stands for the least concentration at which growth counts as inhibited.

Take `COCOC(=O)[C@@H]1N2C(=O)[C@@H](N3C(=O)[C@@H](c4ccccc4)NC3(C)C)[C@H]2SC1(C)C` [BL-P1761, methoxymethyl ester of hetacillin]: in series [1], the “hydrolysis of the ester” value is on record as “hydrolyze eventually to their parent penicillins”.
As for `CC1(C)S[C@@H]2[C@H](NC(=O)[C@H](N)c3ccc(O)cc3)C(=O)N2[C@H]1C(=O)O` [Amoxicillin Trihydrate], the MIC in [2] was 0.016 µg/mL; in [3], 0.016 µg/mL; in series [4], 0.25 µg/mL; in series [5] (28° C.) it was 32 µg/mL; in [5] (37° C.), 63 µg/mL; in [6] (first of three lines), greater than 125 µg/mL. In addition, the MIC in series [6] (second of three lines, read-out: MIC) is 63 µg/mL; in [6] (third of three lines), 125 µg/mL; in series [7], greater than 125 µg/mL; in series [8] it was 16 µg/mL; in [9], 0.25 µg/mL; in series [10], 0.13 µg/mL. Besides, the MIC in series [11] is 32 µg/mL; in series [12], greater than 125 µg/mL; in [13], greater than 125 µg/mL; in [13] (K. pneumoniae (10^-4), first of two lines, read-out: MIC) it was 0.25 µg/mL; in series [14] (BX1633), greater than 125 µg/mL; in series [14] (BX1633, S. aureus BX1633 (10^-3), read-out: MIC), 16 µg/mL. The compound also came in with a minimum inhibitory concentration (MIC) in [15] of 1 µg/mL.
On to `CC1(C)S[C@@H]2[C@H](N3C(=O)[C@@H](c4ccccc4)NC3(C)C)C(=O)N2[C@H]1C(=O)O` [Compound 3, D-6-(2,2-dimethyl-5-oxo-4-phenyl-1-imidazolidinyl)penicillanic acid], for which, in [16], the concentration at 0.5 h worked out at 2000 ng/mL, the concentration at 2 h was 1100 ng/mL and the concentration at 3.5 h came out at 500 ng/mL.
